The values below come from patent US10322999B2, “Oxindoles derivatives, preparation method thereof and pharmaceutical compositions for the prevention or treatment of cancer containing the same as an active ingredient” (RESEARCH & BUSINESS FOUNDATION SUNGKYUNKWAN UNIVERSITY, priority 2017, dated 2019).

pIC50: −log10 of the molar value. Read-outs that look alike come from different tables or passages of the source.

The subject of assay [1] is human lung cancer cell line (A459). The experiment in a line: MTT assay, growth inhibition of A549 cells. The format is cell-based. As to conditions: for pIC50 / IC50: Homo sapiens; for pIC50: MTT, 48 hours incubation, A549, read-out: A549 (IC50); for IC50: 48 h, read-out: A549 (IC50, μM). The protocol: (§1) To evaluate the anticancer activity of the oxindole derivatives produced and analyzed in examples 1 to 8, MTT assay was performed to confirm the growth inhibitory effect on cancer cells. More specifically, human prostate adenocarcinoma cell line (LNCaP), human breast cancer cell line (MCF-7), human ovarian cancer cell line (SKOV3), human lung cancer cell line […] and human renal adenocarcinoma cell line (786-O) were cultured in DMEM medium supplemented with 1% penicillin/streptomycin and 10% fetal bovine serum (All from Life Technologies, Grand Island, N.Y.). Cells were seeded in 96-well plates (3×10^3 cells/well) containing 100 μL of growth medium for 24 hours. After the medium was removed, 100 μL of each of the different analogues (dissolved in DMSO to 0.025% or less) was added to each well and cultured at 37° C. for 48 hours. After 48 hours of incubation, 100 μL of MTT reagent was added to each well. After incubation at 37° C. for 4 hours, the supernatant was aspirated, and the formazan crystals were dissolved in 100 μL of DMSO at 37° C. for 10 minutes with gentle stirring. Absorbance per well was measured at 540 nm using a VERSA max microplate reader (Molecular Devices Corp.). IC50 values were defined as compound concentrations that inhibited cell proliferation by 50% compared to cells treated with the highest amount of DMSO (0.025%) and were considered to be 100% viability.
A general note: Tetrazolium dyes change colour on reduction, which living cells bring about.

The subject of assay [2] is human ovarian cancer cell line (SKOV3). The assay can be described thus: MTT assay, growth inhibition of SKOV3 cells. The format is cell-based. As to conditions: for pIC50: SK-OV-3, MTT, 48 hours incubation, SKOV3, read-out: SKOV3 (IC50); for IC50: SK-OV-3, 48 h, read-out: SKOV3 (IC50, μM). The protocol: as §1
For assay [3], the system named is human renal adenocarcinoma cell line (786-O). The assay can be described thus: MTT assay, growth inhibition of 786-O cells. The format is cell-based. As to conditions: for pIC50 / IC50: Homo sapiens; for pIC50: 786-0, MTT, 48 hours incubation, 786-O, read-out: 786-O (IC50); for IC50: 786-0, 48 h, read-out: 786-O (IC50, μM). The protocol: as §1
In assay [4] the test system is human prostate adenocarcinoma cell line (LNCaP). The experiment in a line: MTT assay, growth inhibition of LNCaP cells. As to conditions: for pIC50 / IC50: Homo sapiens, LNCaP; for pIC50: MTT, 48 hours incubation, read-out: LNCaP (IC50); for inhibitory activity in LNCaP (in words): summary of Table 3, LNCaP; for IC50: 48 h, read-out: LNCaP (IC50, μM). The format is cell-based. The protocol:
as §1

Assay [5] concerns human breast cancer cell line (MCF-7). The experiment in a line: MTT assay, growth inhibition of MCF-7 cells. Format: cell-based. As to conditions: for pIC50: MCF7, MTT, 48 hours incubation, MCF-7, read-out: MCF-7 (IC50); for IC50: MCF7, 48 h, read-out: MCF-7 (IC50, μM). The protocol:
as §1

A further assay relates to all carcinomas. The assay can be described thus: MTT assay, summary over all five cancer cell lines. Format: cell-based, human. As to conditions: summary of Table 3, all five cell lines. The protocol:
as §1

In the case of `CNC(=O)CC1C(=O)N(Nc2cccc(Cl)c2C)c2c1ccc(Cl)c2C` (stereo not drawn) [3e, 2-(6-Chloro-1-((3-chloro-2-methylphenyl)amino)-7-methyl-2-oxoindolin-3-yl)-N-methylacetamide], the negative-log IC50 (pIC50) (commonly −log10 of the IC50, conventionally taken in molar units) was 4.48 in assay [1]; 4.67 in assay [2]; 4.83 in assay [3]; 4.81 in assay [4]; 4.69 in assay [5]. Besides, in the assay with all carcinomas, the “inhibitory activity against all carcinomas (in words)” value was “excellent”.

Take `CNC(=O)CC1C(=O)N(Nc2cccc(Br)c2C)c2c1ccc(Br)c2C` (stereo not drawn) [3f, 2-(6-bromo-1-((3-bromo-2-methylphenyl)amino)-7-methyl-2-oxoindolin-3-yl)-N-methylacetamide]: the pIC50 is 4.62 in assay [1]; 4.77 in assay [2]; 4.88 in assay [3]; 4.89 in assay [4]; 4.83 in assay [5]. Also, the “inhibitory activity against all carcinomas (in words)” value in the assay with all carcinomas is given as “excellent”.

`CCNC(=O)CC1C(=O)N(Nc2ccccc2CC)c2c(CC)cccc21` (stereo not drawn) [4b, N-Ethyl-2-(7-ethyl-1-((2-ethylphenyl)amino)-2-oxoindolin-3-yl)acetamide]: the pIC50 in assay [1] is under 4.30; in assay [2], under 4.30; in assay [3], under 4.30; in assay [4], 4.49; in assay [5], under 4.30. Besides, the “inhibitory activity in A549 (in words)” value in assay [1] (summary of Table 3, A549) is “excellent activity”. In addition, the “inhibitory activity in 786-O (in words)” value in assay [3] (summary of Table 3, 786-O) is reported as “excellent activity”. Besides, the “inhibitory activity in LNCaP (in words)” value in assay [4] is “excellent activity”.

Turning to `CCc1ccccc1NN1C(=O)C(CC(=O)NCc2ccccc2)c2cccc(CC)c21` (stereo not drawn) [4c, N-Benzyl-2-(7-ethyl-1-((2-ethylphenyl)amino)-2-oxoindolin-3-yl)acetamide], the negative-log IC50 (pIC50) in assay [1] is 4.54; in assay [2] it was 4.69; in assay [3], 4.98; in assay [4], 4.91; in assay [5], 4.78. For the same compound, the “inhibitory activity against all carcinomas (in words)” value with all carcinomas is “excellent”.

As to `CCc1ccccc1NN1C(=O)C(CC(=O)NC2CCCCC2)c2cccc(CC)c21` (stereo not drawn) [4d, N-Cyclohexyl-2-(7-ethyl-1-((2-ethylphenyl)amino)-2-oxoindolin-3-yl)acetamide], the pIC50 in assay [1] is under 4.41; in assay [2], under 4.30; in assay [3] it was 4.48; in assay [4] it was 4.48; in assay [5], 4.39.

For the compound `CCc1ccccc1NN1C(=O)C(CC(=O)NC(C)(C)C)c2cccc(CC)c21` (stereo not drawn) [4e, N-(tert-butyl)-2-(7-ethyl-1-((2-ethylphenyl)amino)-2-oxoindolin-3-yl)acetamide], the pIC50 in assay [1] is under 4.30; in assay [2] it was under 4.30; in assay [3] it was 4.44; in assay [4], 4.82; in assay [5], under 4.30.

Consider `CCc1ccccc1NN1C(=O)C(CC(N)=O)c2cccc(CC)c21` (stereo not drawn) [4f, 2-(7-Ethyl-1-((2-ethylphenyl)amino)-2-oxoindolin-3-yl)acetamide], for which the pIC50 in assay [1], in assay [2], in assay [3], in assay [4] and in assay [5] was under 4.30 in each case.

Regarding `CCc1ccccc1NN1C(=O)C(CC(=O)Nc2ccccc2)c2cccc(CC)c21` (stereo not drawn) [4g, 2-(7-Ethyl-1-((2-ethylphenyl)amino)-2-oxoindolin-3-yl)-N-phenylacetamide], the pIC50 in assay [1] is 4.77; in assay [2] it was 4.86; in assay [3] it was 5.32; in assay [4], 5.22; in assay [5] it was 5.02. Moreover, the “inhibitory activity against all carcinomas (in words)” value in the assay on all carcinomas is on record as “excellent”.

For `CCOC(=O)NC(=O)CC1C(=O)N(Nc2ccccc2CC)c2c(CC)cccc21` (stereo not drawn) [4h, Ethyl (2-(7-ethyl-1-((2-ethylphenyl)amino)-2-oxoindolin-3-yl)acetyl)carbamate], the concentration for half-maximal inhibition (IC50) in assay [1], in assay [2], in assay [3], in assay [4] and in assay [5] was over 50 µM each time.

As to `CCc1ccccc1NN1C(=O)C(CC(=O)NC(=O)OC)c2cccc(CC)c21` (stereo not drawn) [4i, Methyl (2-(7-ethyl-1-((2-ethylphenyl)amino)-2-oxoindolin-3-yl)acetyl)carbamate], the negative logarithm of the IC50 (pIC50) in assay [1] was under 4.30; in assay [2] it was under 4.30; in assay [3], 4.49; in assay [4] it was 4.47; in assay [5], under 4.30.

As to `CCc1ccccc1NN1C(=O)C(CC(=O)N[C@@H](C)C(=O)OC)c2cccc(CC)c21` (stereo partly drawn) [4j, Methyl (2-(7-ethyl-1-((2-ethylphenyl)amino)-2-oxoindolin-3-yl)acetyl)-L-alaninate], the half-inhibitory concentration (IC50) in assay [1], in assay [2], in assay [3], in assay [4] and in assay [5] was over 50 µM in each case.

Take `CCc1ccccc1NN1C(=O)C(CC(=O)OC)c2cccc(CC)c21` (stereo not drawn) [6a, Methyl 2-(7-ethyl-1-((2-ethylphenyl)amino)-2-oxoindolin-3-yl)acetate]: the negative-log IC50 (pIC50) in assay [1], in assay [2], in assay [3], in assay [4] and in assay [5] was under 4.30 each time.

Turning to `CCCCOC(=O)CC1C(=O)N(Nc2ccccc2CC)c2c(CC)cccc21` (stereo not drawn) [6b, Butyl 2-(7-ethyl-1-((2-ethylphenyl)amino)-2-oxoindolin-3-yl)acetate], the pIC50 in assay [1] is 4.75; in assay [2] it was 4.82; in assay [3] it was 4.91; in assay [4], 4.86; in assay [5], 4.83. In the assay on all carcinomas, the “inhibitory activity against all carcinomas (in words)” value is “excellent”.

In the case of `CCc1ccccc1NN1C(=O)C(CC(=O)OC(C)C)c2cccc(CC)c21` (stereo not drawn) [6c, Isopropyl 2-(7-ethyl-1-((2-ethylphenyl)amino)-2-oxoindolin-3-yl)acetate], the pIC50 in assay [1] was under 4.30; in assay [2], under 4.30; in assay [3], 4.52; in assay [4], 4.84; in assay [5], 4.34. Also, in assay [4], the “inhibitory activity in LNCaP (in words)” value is on record as “excellent activity”.

For the compound `CCc1ccccc1NN1C(=O)C(CC(=O)OCC(C)C)c2cccc(CC)c21` (stereo not drawn) [6d, Isobutyl 2-(7-ethyl-1-((2-ethylphenyl)amino)-2-oxoindolin-3-yl)acetate], the negative-log IC50 (pIC50) in assay [1] is 4.65; in assay [2], 4.84; in assay [3] it was 4.90; in assay [4] it was 4.90; in assay [5], 4.85. Further, the “inhibitory activity against all carcinomas (in words)” value with all carcinomas is recorded as “excellent”.

Regarding `CCCCOC(=O)c1[nH]c2cc(CC)ccc2c1C(=O)OCCCC` [7a, Dibutyl 6-ethyl-1H-indole-2,3-dicarboxylate], the pIC50 was 4.61 in assay [1]; 4.66 in assay [2]; 4.88 in assay [3]; 4.84 in assay [4]; 4.69 in assay [5]. Besides, in the assay with all carcinomas, the “inhibitory activity against all carcinomas (in words)” value is given as “excellent”.

Turning to `CCc1cccc2c1NC(=O)C2CC(=O)OC(C)C` (stereo not drawn) [8b, Isopropyl 2-(7-ethyl-2-oxoindolin-3-yl)acetate], the negative logarithm of the IC50 (pIC50) in assay [1], in assay [2], in assay [3], in assay [4] and in assay [5] was under 4.30 in each case.
